For data set [1], the system named is bacteria in the mesenteric lymph nodes. In words: Colony forming units in mesenteric lymph nodes (bacterial translocation). The note with it: blood and BHI agar; aerobic, anaerobic, CO2; G6 oxycodone, G7 oxycodone/naloxone. Type of data set: in vivo, mice. The protocol:
Following euthanasia, the abdomen was opened. The mesenteric root was presented and the mesenteric net unfolded. The mesenteric lymph nodes (MLNs) were removed and surrounding fat was removed. The MLNs were then weighed into sterilized tubes. Following weighing, the MLNs were frozen in liquid nitrogen. Following freezing, the MLNs were placed on dry ice prior to storage in a −70° C. freezer […].
MLNs were obtained as indicated above and the amount of bacteria in the MLNs was analyzed by determining colony forming units (CFUs) per g MLN in different media and under different conditions as indicated in FIG. 7. Contaminated samples were not taken into account (contaminated samples in the different groups: 1 in G1, 1 in G3, 2 in G6 and 3 in G7). The statistical analysis was performed using one way ANCOVA.

A short description of data set [2]: Body weights over 7 days of dosing. The note with it: 10 mg/kg oxycodone or 10 mg/kg oxycodone/5 mg/kg naloxone, oral gavage. It counts as in vivo, mice. Here is the method: Animals were administered the dose by oral gavage three times a day (˜4 hours apart) for 7 days and once on the 8th day. Prior to the first dose administration of the day, the dose formulation vials designated for that day were removed from the refrigerator, briefly mixed, and allowed to come to room temperature, where the vials remained throughout the day. After the third dose on day 7, all animals fasted through euthanasia. The dose volume was based on the animal's body weight on Day 1. Dose volume was recorded.
Individual body weights were recorded prior to administration of the first dose on Day 1. The body weight determinations prior to Day 1 dose administration was used to determine the dose administered for all subsequent doses. Subsequent body weights were recorded daily after the 2nd dose of the day on Days 2 through 7.

For data set [3], the system named is male C57BL/6 RAG1-/- knockout mice. In words: Charcoal test of intestinal motility (GI transit). Type of data set: in vivo. The note with it: charcoal meal; oral gavage three times a day for 7 days and once on 8th day; Oxy 10 mg/kg, Oxy/Nal 10/5.0 mg/kg. The protocol:
Male mice of the strain C57BL/6 RAG −/− (Taconic Model 4175-M, Taconic Laboratories) with an approximal weight at arrival of 20±7 g at an approximal age of 5 to 10 weeks were used in the present study.
The formulations were prepared on Day 0 and used for Day 1 to Day 8 dosing. Sterile water was used as vehicle. Each of the two dose formulations was transferred into eight individual sterile vials through sterilization filters, one designated for each day of dosing. The dose formulations were stored refrigerated and protected from light.
Animals were administered the dose by oral gavage three times a day (˜4 hours apart) for 7 days and once on the 8th day. Prior to the first dose administration of the day, the dose formulation vials designated for that day were removed from the refrigerator, briefly mixed, and allowed to come to room temperature, where the vials remained throughout the day. After the third dose on day 7, all animals fasted through euthanasia. The dose volume was based on the animal's body weight on Day 1. Dose volume was recorded. […]
Thirty minutes after charcoal delivery, animals were euthanized by an overdose of CO2. […] Its full length and the length of charcoal meal traveled were measured in centimeters. Intestinal transit was expressed as the percentage of intestine length containing the meal, i.e. 100×(pylorus to meal front/pylorus to caecum length). […]

The test system of data set [4] is bacteria of different phyla in the colon. The experiment in a line: Analysis of the colon contents (bacterial phyla). The settings on record: phylum levels, FIG. 9; G1 untreated, G3 vehicle, G6, G7. Here is the method:
(§1) The small intestine, caecum, and colon were cut longitudinally. The contents of each were individually collected into separate containers with a small spatula or similar instrument, taking care to cause as little injury to the tissue as possible. The weight of the contents collected from each portion was recorded. The weights of the small intestine, caecum, and colon following removal of the contents were also recorded. Collected luminal contents samples were then frozen in liquid nitrogen. Luminal contents samples were then placed on dry ice before transfer to a −80° C. freezer.

The test system of data set [5] is bacteria of different phyla in the small intestine. In words: Analysis of the contents of the small intestine (bacterial phyla). The protocol: as §1
The contents of the small intestine of the different groups were obtained as described above.

Where [6] appears, read: small intestine, n=7 for G6, n=4 for G7.

`COc1ccc2c3c1O[C@H]1C(=O)CC[C@@]4(O)[C@@H](C2)N(C)CC[C@]314` [oxycodone]: the “CFUs in MLNs (bacterial translocation into mesenteric lymph nodes)” value in data set [1] is “Increased CFUs”. The “average percentage body weight loss” value in data set [2] was 4.17%. Moreover, the “reduction of GI transit compared to vehicle” value in data set [3] worked out at 67%. For the same molecule, the “proteobacteria in colon compared to the remaining groups” value in data set [4] is recorded as “increase”. Moreover, in data set [5] (phylum levels, FIG. 8), the “bacterioides in small intestine, G6-group compared to G7-group” value is recorded as “clear decrease” and the “proteobacteria in small intestine, G6-group compared to G7-group” value was “clear increase”. In data set [5] (setting [6]), the “mice with completely (dramatically) altered small intestine microbiome composition” value is recorded as 2/7 and the “mice with pathogenic populations such as proteobacteria in small intestine” value is recorded as 5/7.

These data come from US10071089B2 (Euro-Celtique S.A., priority 2013, dated 2018).
